Measurements as given in PubChem BioAssay (NCI).
Where “and” joins values, the source holds several entries; their conditions need not be identical. Identical values can stand only once.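 Method: 48-hour compound exposure of cells in 96-well plates, five concentrations, linear interpolation of endpoints. Abbreviation: GI50, concentration required for 50% inhibition of growth. TGI denotes the concentration required for complete inhibition of growth.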

Assays:
Assay in all cases: growth of human tumour cells (NCI), 48 h
A549 NSCLC = tested on: A549 NSCLC
CAKI-1 renal = tested on: CAKI-1 renal
DU-145 prostate = tested on: DU-145 prostate
HT29 colon = tested on: HT29 colon
IGROV1 ovarian = tested on: IGROV1 ovarian
NCI-H23 lung = tested on: NCI-H23 lung
NCI/ADR-RES ovarian = tested on: NCI/ADR-RES ovarian
SF-268 CNS = tested on: SF-268 CNS
SF-295 CNS = tested on: SF-295 CNS
SNB-75 CNS = tested on: SNB-75 CNS

SMILES	GI50 (A549 NSCLC) [µM]	TGI (A549 NSCLC) [µM]	GI50 (CAKI-1 renal) [µM]	TGI (CAKI-1 renal) [µM]	GI50 (DU-145 prostate) [µM]	TGI (DU-145 prostate) [µM]	GI50 (HT29 colon) [µM]	TGI (HT29 colon) [µM]	GI50 (IGROV1 ovarian) [µM]	TGI (IGROV1 ovarian) [µM]	GI50 (NCI-H23 lung) [µM]	TGI (NCI-H23 lung) [µM]	GI50 (NCI/ADR-RES ovarian)	TGI (NCI/ADR-RES ovarian) [µM]	GI50 (SF-268 CNS) [µM]	TGI (SF-268 CNS) [µM]	GI50 (SF-295 CNS)	TGI (SF-295 CNS) [µM]	GI50 (SNB-75 CNS)	TGI (SNB-75 CNS) [µM]
CN(C)CC#Cc1cccc(C(=O)c2cnn(-c3ccc(F)cc3)c2N)c1	> 25	> 25	> 25	> 25	> 25	> 25	> 19.5	> 25	> 21.1	> 25	> 25	> 25	> 25 µM	> 25	> 25	> 25	> 20.6 µM	> 25	19.6 µM	> 25
CO/N=C1/NC(=O)/C(=C/c2ccc3ncccc3c2)S1	10.7	> 25	8.49	> 25	12.3	> 25	16.8	> 25	4.78	15.9	12.2	> 25	> 25 µM	> 25	> 25	> 25	19.9 µM	> 25	4.07 µM	> 25
CN(/N=N/c1nc(OCc2ccccc2)c2[nH]cnc2n1)C(=O)N(C)/N=N/c1nc(OCc2ccccc2)c2[nH]cnc2n1	56	> 100	17	63.5	38.9	> 100	60.5	> 100	34.9	> 100	34.7	> 100	47.2 µM	> 100	47.6	> 100	32.4 µM	> 100	> 100 µM	> 100
c1cncc(C(Nc2cccc3cccnc23)Nc2cccc3cccnc23)c1	–	> 100	–	> 100	–	> 100	–	> 100	–	> 100	–	> 100	–	> 100	–	> 100	–	> 100	–	> 100
Fc1ccc(-c2nnc3sc(-c4cccc(Cl)c4)nn23)cc1Cl	> 100	> 100	> 100	> 100	> 100	> 100	> 100	> 100	> 100	> 100	> 100	> 100	> 100 µM	> 100	> 100	> 100	> 100 µM	> 100	44.4 µM	> 100
O=C(O)c1ccc(NS(=O)(=O)c2cccc3cccnc23)cc1	> 100	> 100	> 100	> 100	> 100	> 100	> 100	> 100	> 100	> 100	> 100	> 100	> 100 µM	> 100	> 100	> 100	> 100 µM	> 100	> 100 µM	> 100
COc1cc(-c2cn(-c3ccc(Cl)cc3)c(=O)[nH]2)cc(OC)c1OC	> 100	> 100	> 100	> 100	> 100	> 100	> 100	> 100	> 100	> 100	> 100	> 100	> 100 µM	> 100	> 100	> 100	> 100 µM	> 100	> 100 µM	> 100
O=c1[nH]nc2c3c(cccc13)NC(CN1Cc3ccccc3C1)=N2	5.69	> 100	4.92	> 100	5	> 100	3.45	> 100	3.87	> 100	4.41	> 100	25.7 µM	> 100	7.4	> 100	5.61 µM	> 100	2.77 µM	> 100
COc1ccc(/C=C(\C#N)c2cc(OC)c3c(c2)OCO3)cc1	< 0.0148	44.1	0.465	90.8	0.0256	0.186	< 0.01	0.694	0.0212	32	< 0.0143	24.3	< 0.01 µM	0.58	< 0.01	52.6	< 0.01 µM	21	0.0102 µM	–
c1cncc(CNc2ccccc2-c2nnc(Nc3ccc4c(c3)OCCO4)o2)c1	0.294	> 100	0.215	> 100	0.244	1.54	0.0504	15.2	0.5	> 100	0.226	> 100	0.0557 µM	> 100	0.646	> 100	0.0936 µM	> 100	0.0527 µM	> 100
Nc1ncc(-c2ccc(C(F)(F)F)cc2)c(NC2CCCCCC2)n1	16.5	> 100	20.9	> 100	39.9	> 100	40.6	> 100	19.5	> 100	20	> 100	25.3 µM	> 100	48.4	> 100	24.1 µM	> 100	43.4 µM	> 100
O=[N+]([O-])c1cc(Br)cc2c1[nH]c1ccc(Br)cc12	6.11	45	2.23	11.9	6.17	76.6	4.03	> 100	2.74	38.7	8.56	> 100	6.09 µM	62.7	10.2	45.9	2.78 µM	9.35	2.12 µM	14.8
CN1CCN(Cc2ccc(NC(=O)c3[nH]ncc3Nc3ncnc4c3CCC4)cc2)CC1	2.18	12.8	2.73	11.1	1.64	10.7	2.17	8.79	1.45	14.6	1.8	6.79	6.17 µM	45.1	2.14	7.78	2.24 µM	12	0.0341 µM	3.2
Cn1c2ccccc2c2nnc(N/N=C/c3ccccn3)nc21	0.461	> 27.5	0.264	1.19	0.377	> 27.3	0.529	> 100	0.44	> 23.6	0.382	> 22.6	0.336 µM	8.89	0.343	–	0.37 µM	> 23.9	1.09 µM	6.78
CCOC(=O)C(Cc1c[nH]c2cc([N+](=O)[O-])ccc12)(NC(C)=O)C(=O)OCC	–	> 1000	190	> 1000	> 542	> 1000	> 1000	> 1000	176	> 1000	138	> 1000	92.2 µM and 331 µM	> 1000	95.1	> 1000	57.9 µM and 56.9 µM	> 478	93.5 µM and 46.8 µM	114
CC1(C)N=C(N)N=C(N)N1c1cccc(CCCCc2ccc(S(=O)(=O)F)cc2Cl)c1	1.42	> 100	9.21	> 100	4.06	> 59.8	0.788	> 100	0.313	> 38.5	4.27	27.3	76 µM	> 100	1.96	17.4	2.44 µM	> 38.8	2.74 µM	23.9
CNC1NC(=O)c2ccccc2N1Cc1ccc(F)cc1 (stereo unspecified)	–	> 100	–	> 100	–	> 100	–	> 100	–	> 100	–	> 100	–	> 100	–	> 100	–	> 100	–	> 100
N#CSCC1CC(O)(c2ccccc2)C(c2ccccc2)C(c2ccc(F)cc2)O1 (stereo unspecified)	8.38	40.5	2.39	5.46	2.16	5	2.61	11.6	1.69	7.6	3.21	11.1	3.13 µM	11.9	2.57	7.25	1.88 µM	7.08	7.63 µM	45.2
NC1CCC[C@@H](O)[C@H]1O (stereo partly specified)	–	> 100	–	> 100	–	> 100	–	> 100	–	> 100	–	> 100	–	> 100	–	> 100	–	> 100	–	> 100
COc1ccc(C(=O)c2cc(OC)c(OC)c(OC)c2)cc1O	0.0717	> 100	0.363	> 100	0.0387	> 100	1.96	> 49.5	0.278	> 100	0.055	> 100	0.0118 µM	> 100	0.0613	> 100	0.367 µM	> 100	< 0.01 µM	> 100
O=C(N/N=C/c1ccc(O)cc1O)c1ccc(Nc2ccnc(C(F)(F)F)c2)cc1	> 100	> 100	0.0533	1.8	21.9	> 100	> 100	> 100	21.6	> 100	> 82.1	> 100	> 100 µM	> 100	0.156	33.3	–	23.3	3.72 µM	26.7
CCOc1cc2ncc(C#N)c(Nc3ccc(F)c(Cl)c3)c2cc1NC(=O)/C=C/CN(C)C	0.324	> 9.66	0.0278	0.952	0.05	1.62	0.827	> 5.95	0.0269	0.466	1.32	> 7.42	0.679 µM	> 10	0.265	> 6.99	2.25 µM	> 10	0.228 µM	> 3.71
Cc1ccc2c(=O)[nH]sc2c1	–	43.1	–	17.8	–	> 100	–	32.3	–	35.3	–	42.4	–	55.8	–	39	–	> 100	–	> 100
Cc1ccc(NS(=O)(=O)c2cc(C)ccc2C)cc1	4.78	38	3.25	29.2	6.17	28.1	2.84	12.3	7.02	> 100	4.65	50.5	1.38 µM	8.95	7	35.2	2.62 µM	19.8	3.15 µM	24.8
O=C(Nc1ccc2oc(=O)c(C(=O)O)cc2c1)Oc1ccccc1	–	> 100	–	> 100	–	> 100	–	> 100	–	> 100	–	> 100	–	> 100	–	> 100	–	> 100	–	> 100
COc1cccc(/C=C/C(=O)c2cc3c(N)c(C(=O)Nc4cccc(Cl)c4C)sc3nc2C)c1	1.72	> 50	0.884	2.53	1.33	3.98	0.418	2.41	0.832	1.85	1.34	5.4	0.883 µM	3.08	1.57	14.4	1.5 µM	9.56	0.679 µM	> 12.1
O=C(c1cc(-c2cc3c(cc2C(=O)N2Cc4ccccc4C[C@H]2CN2CCOCC2)OCO3)n2c1CCCC2)N(c1ccccc1)c1ccc(O)cc1	5.15	> 100	3.56	> 100	18	> 100	5.14	> 100	5.97	> 100	34.8	> 100	6.5 µM	> 100	7.65	> 100	5.14 µM	> 100	3.61 µM	> 100
